{"source": "patent US20240285670A1", "about": "“THERAPEUTIC TREATMENT OF TUMORS BY BLOCKING THE HEME SYNTHESIS-EXPORT AXIS” (Università degli Studi di Torino, priority 2021, published 2024)", "format_in_all_cases": "cell-based, human", "key": {"Caco2 cells": {"system": "Caco2 cells", "test": "Flow cytometric analysis of apoptosis in Caco2 cells", "settings": "FLVCR1a-silenced vs scramble shRNA, synchronized Caco2 cells", "from_the_text": "(§1) (A) Proliferation of Caco2 cells assessed by crystal violet staining at the indicated days; bar=1000 μm. […] Staining quantification is reported in the bar graph as percentage of crystal violet stained area. Data represent mean±SEM, n=4. For statistical analyses, a two-way analysis of variance was used, followed by the Bonferroni correction for multiple group comparisons; *=p<0.05, ***=p<0.001. (B) Caco2 cells viability the day of plating (day 0) and three days after plaiting (day 3). The measure is considered a readout of cell proliferation. […] Data represent mean±SEM, n=3 wells. For statistical analyses, a two-way analysis of variance was used, followed by the Bonferroni correction for multiple group comparisons; *=p<0.05, **=p<0.01. (C, D, E) Representative flow cytometric analyses of apoptosis in synchronized Caco2 (C), SKCO1 (D) and C80 (E) cells. […] Data represent mean±SEM, n=4 wells pooled from two independent experiments. For statistical analyses, an unpaired Student's t-test was used; *=p<0.05, **=p<0.01. […]\n(§2) Stained cells were analyzed using a FACSCanto II cytofluorimeter and processed with BD FACSDIVA Software v8.1 (BD Biosciences, Milan, IT; http://www.bdbiosciences.com/instruments/software/facsdiva/index.jsp/ RRID:SCR_001456), acquiring at least 10,000 events per sample or 25,000 cells per sample for cell cycle experiments."}, "SH-SY5Y cells": {"system": "SH-SY5Y cells", "test": "TCA cycle flux in SHSY-5Y cells", "settings": "FLVCR1a-silenced vs scramble shRNA SH-SY5Y cells", "from_the_text": "Results were expressed as nmol NAD*/min/mg mitochondrial protein for complex I, nmol reduced cytochrome c/min/mg mitochondrial protein for complexes II-III, nmol oxidized cytochrome c/min/mg mitochondrial protein for complex IV. Data represent mean±SEM, n=3. For statistical analyses, an unpaired Student's t-test was used; *=p<0.05, **=p<0.01, *=p<0.001. […] Results are expressed as nmol/mg mitochondrial proteins. Data represent mean±SEM, n=3. For statistical analyses, an unpaired Student's t-test was used; *=p<0.05. […] Results are expressed as pmol CO2/h/mg protein. Data represent mean±SEM, n=3. For statistical analyses, an unpaired Student's t-test was used; **=p<0.01. […] Results were expressed as nmol NAD*/min/mg mitochondrial protein for complex I, nmol reduced cytochrome c/min/mg mitochondrial protein for complexes II-III, nmol oxidized cytochrome c/min/mg mitochondrial protein for complex IV. […] Results are expressed as nmol/mg mitochondrial proteins. […] Results are expressed as pmol CO2/h/mg protein. […] (H) TCA cycle enzymes activities are reported in boxes and expressed as mU/mg mitochondrial proteins. […] Results were expressed as nmol NAD^+/min/mg mitochondrial protein for complex I, nmol reduced cytochrome c/min/mg mitochondrial protein for complexes II-III, nmol oxidized cytochrome c/min/mg mitochondrial protein for complex IV. […] Results are expressed as nmol/mg mitochondrial proteins. […]"}, "C80 cells": {"system": "C80 cells", "test": "Flow cytometric analysis of apoptosis in C80 cells", "settings": "FLVCR1a-silenced vs scramble shRNA, synchronized C80 cells", "from_the_text": "as §1, §2"}}}
{"substance": "FLVCR1a shRNA: shRNA specifically down-regulating FLVCR1a without targeting FLVCR1b; pLKO.1 lentiviral clone TRCN0000059599, antisense SEQ ID No.: 2 (antisense TTGCTAATGATGCTGTACTGG; sense CCAGTACAGCATCATTAGCAA)", "values": [{"measurement": "basal apoptosis", "setting": "Caco2 cells", "result": "higher extent of basal apoptosis"}, {"measurement": "TCA cycle flux", "setting": "SH-SY5Y cells", "result": "increased TCA cycle flux"}, {"measurement": "apoptosis", "setting": "C80 cells", "result": "increased apoptosis"}]}
